PMC9372074, “Biocatalytic routes to stereo-divergent iridoids” (Nature Communications, 2022)
Read-outs that look alike come from different tables or passages of the source.

Tests used:
NmNEPS1 = target: T1, NmNEPS1 (Nepeta racemosa, UniProt A0A3Q8GL18); conditions: NADPH, 5 mM NAD+, pH 8, 30 °C
T1 construct: gene NEPS1

NmNEPS4 = target: T2, NmNEPS4 (Nepeta racemosa, UniProt A0A7D3UJX6); assay: end-point GC-MS coupled assay; assay type: biochemical; conditions: nepetalactol formed in situ with 7S-ISY; NADPH, 5 mM NAD+; pH 8, 30 °C
T2 construct: pOPINF, His-tagged; E. coli SoluBL21; Ni-NTA purified
T2 sequence (A0A7D3UJX6 1-274): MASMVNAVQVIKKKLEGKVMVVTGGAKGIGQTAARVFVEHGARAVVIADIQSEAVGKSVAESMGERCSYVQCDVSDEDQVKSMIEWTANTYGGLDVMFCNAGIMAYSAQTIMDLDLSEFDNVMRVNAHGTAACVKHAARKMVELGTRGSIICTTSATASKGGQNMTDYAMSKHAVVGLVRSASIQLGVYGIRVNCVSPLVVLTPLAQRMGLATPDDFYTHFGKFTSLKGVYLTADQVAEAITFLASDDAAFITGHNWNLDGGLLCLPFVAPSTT

NmNEPS3 [1] = target: T3, NmNEPS3 (Nepeta racemosa, UniProt A0A3Q8GLE8, Q206V); conditions: nepetalactol formed in situ by the enzyme from ISY product; NADPH, 5 mM NAD+; pH 8, 30 °C
T3 construct: gene NEPS3

NmNEPS3 [2] = target: T4, NmNEPS3 (Nepeta racemosa, UniProt A0A3Q8GLE8); conditions: with 7S-ISY and 8-oxogeranial; pH 8, 30 °C; cyclization of 8-oxocitronellyl enol
T4 construct: gene NEPS3

NcNEPS3A [3] = target: T5, NcNEPS3A (Nepeta cataria, UniProt A0A7D3QLP1, V206Q); assay: end-point GC-MS coupled assay; assay type: biochemical; conditions: with 7S-ISY and 8-oxogeranial; NADPH, 5 mM NAD+; pH 8, 30 °C
T5 construct: pOPINF, His-tagged; E. coli SoluBL21; Ni-NTA purified

NcNEPS3A [4] = target: T6, NcNEPS3A (Nepeta cataria, UniProt A0A7D3QLP1); assay: end-point GC-MS coupled assay; assay type: biochemical; conditions: nepetalactol formed in situ by the enzyme from ISY product; NADPH, 5 mM NAD+; pH 8, 30 °C
T6 construct: pOPINF, His-tagged; E. coli SoluBL21; Ni-NTA purified
T6 sequence (A0A7D3QLP1 entry or part of it): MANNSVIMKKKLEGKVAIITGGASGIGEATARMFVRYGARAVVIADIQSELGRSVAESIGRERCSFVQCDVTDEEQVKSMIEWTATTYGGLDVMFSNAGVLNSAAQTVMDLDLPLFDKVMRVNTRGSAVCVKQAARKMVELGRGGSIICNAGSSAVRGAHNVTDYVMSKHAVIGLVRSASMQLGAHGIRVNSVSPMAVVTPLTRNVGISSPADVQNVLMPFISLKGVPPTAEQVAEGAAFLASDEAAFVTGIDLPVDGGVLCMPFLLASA

T1 sequence (A0A3Q8GL18 whole entry): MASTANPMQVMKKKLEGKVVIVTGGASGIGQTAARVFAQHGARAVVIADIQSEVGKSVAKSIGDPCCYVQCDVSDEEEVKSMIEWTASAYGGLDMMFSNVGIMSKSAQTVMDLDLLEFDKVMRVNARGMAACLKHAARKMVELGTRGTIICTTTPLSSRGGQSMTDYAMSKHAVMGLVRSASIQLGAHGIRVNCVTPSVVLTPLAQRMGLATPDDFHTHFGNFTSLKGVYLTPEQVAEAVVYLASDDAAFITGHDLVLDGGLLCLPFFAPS
T5 sequence (A0A7D3QLP1 entry or part of it V206Q): as the sequence (A0A7D3QLP1 entry or part of it) above, with V206Q counted along it
T3 sequence (A0A3Q8GLE8 whole entry Q206V): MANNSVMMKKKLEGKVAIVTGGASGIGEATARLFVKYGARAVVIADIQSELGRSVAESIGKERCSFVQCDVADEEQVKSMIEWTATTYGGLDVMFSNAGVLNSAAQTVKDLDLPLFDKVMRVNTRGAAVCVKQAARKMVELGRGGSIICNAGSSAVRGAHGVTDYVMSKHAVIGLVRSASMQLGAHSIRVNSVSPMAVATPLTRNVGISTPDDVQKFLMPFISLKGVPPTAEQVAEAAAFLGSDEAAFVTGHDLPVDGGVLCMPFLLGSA
T4 sequence (A0A3Q8GLE8 whole entry): as the sequence (A0A3Q8GLE8 whole entry Q206V) above, with V206Q counted along it

CC1=COC(O)[C@H]2[C@@H]1CC[C@@H]2C (stereo partly drawn) [3a, 7S-cis-trans nepetalactol]
end-point GC-MS coupled assay (NmNEPS1; nepetalactol formed in situ with 7S-ISY): NmNEPS1 is able to oxidize both 3c and 7S-cis-trans nepetalactol 3a | end-point GC-MS coupled assay (NmNEPS4): NmNEPS4 can only oxidize 3a (Fig. 3A)

CC1=COC(O)[C@H]2[C@@H](C)CC[C@@H]12 (stereo partly drawn) [3b, 7S-cis-cis nepetalactol]
end-point GC-MS coupled assay (NmNEPS3 [1]): NmNEPS3-Q206V mutant has restored oxidation activity | end-point GC-MS coupled assay (NmNEPS3 [2]): NmNEPS3 (N. mussinii), which produces 7S-cis-cis nepetalactol 3b | end-point GC-MS coupled assay (NcNEPS3A [3]): NcNEPS3A-V206Q produces only 3b | end-point GC-MS coupled assay (NcNEPS3A [4]): only NcNEPS3A can oxidize 7S-cis-cis nepetalactol 3b

CC1=COC(O)[C@@H]2[C@@H]1CC[C@@H]2C (stereo partly drawn) [3c, 7S-trans-cis nepetalactol]
end-point GC-MS coupled assay (NmNEPS1; nepetalactol formed in situ with 7S-ISY and cyclase): NmNEPS1 is able to oxidize both 3c and 7S-cis-trans nepetalactol 3a
